# According to patent publication US20060247156A1, “Use of neuropeptides for ligament, cartilage, and bone healing” (priority 2004, published 2006):
# Values joined by “and” are separate entries in the source; they are usually repeats but may differ in a detail not shown here. Equal entries are not always repeated. “Also recorded” adds a separate entry of the source.
# What was measured:
# intact and healing MCLs = assay: Intact and healing MCL after in vivo capsaicin: mechanical testing, healing, histomorphology; design: species or system rat
# Experimental: In Group 2, control rats (n=6) were injected with an equal volume of 0.9% saline. […] These rats were also divided into two groups. […] After 3 days of treatment, both groups underwent a surgical rupture of one MCL. Contralateral MCLs were used as sham controls. All rats were maintained in their normal cage environment for 10 days. Then, they were sacrificed as noted above. Femur-MCL-tibia (FMT) complexes were then harvested and tested as above.
# Injections were made into a site between the scapulae. […] Bupivicaine was also administered subcutaneously at the site of the capsaicin injection. […] Into Group 2 (n=6 animals) and Group 4 (n=9 animals), a similar volume of sterile saline was injected via the same method. All other medications were given as in the treated groups. There were no signs of infection, discomfort, or unusual behavior in the treated rats. […] Contralateral legs were used as sham controls.
# Mechanical Testing: Mechanical testing was performed as described in the previous examples. Briefly, animal hind limbs from all groups (n=4 Group 1; n=4 Group 2; n=4 Group 3; n=4 Group 4) were disarticulated at the hip joint and stored at −80° C. until testing. On the day of testing, MCLs including intact femoral and tibial bone sections were excised for ex vivo testing. Ligament thickness and width was measured optically, and MCL area was estimated with elliptical geometry. For strain measurements, optical markers were placed onto the ligament tissue near the insertion sites. A small preload of 0.1N was applied to the ligaments in order to obtain a uniform starting point. The ligaments were then preconditioned to 1% strain for 10 cycles. After preconditioning, ligaments were pulled to failure at a rate of ˜10% per second. Tissue displacement was obtained using video dimensional analysis using equations (1) and (2) infra. The mechanical properties that were examined in this study were maximum force, ultimate stress, strain at failure, elastic modulus, and area. Statistical analysis was performed using an unpaired t-test (p=0.05) to analyze differences between the control and treatment group.
# (§1) Ligaments were immediately fixed in formalin fixative for three days at room temperature. Specimens were embedded in paraffin, sectioned (6 μm), mounted on slides, and stained with hematoxylin and eosin (H&E).
# [1] = system: MCL neuropeptide concentration (SP, CGRP, NPY, VIP); assay: Neuropeptides in MCL after capsaicin (RIA, immunofluorescence); type: in vivo, rat
# Experimental: Injections were made into a site between the scapulae. […] Into Group 2 (n=6 animals) and Group 4 (n=9 animals), a similar volume of sterile saline was injected via the same method. All other medications were given as in the treated groups. […] Contralateral legs were used as sham controls.
# Neuropeptide Radioimmunoassay: Four MCLs from all groups were used for quantification of neuropeptide concentrations via RIA. MCLs were homogenized using a mortar and pestle.
# Each ligament was then incubated in two […] appropriately tagged (AMCA or Rhodamine; Chemicon, Temecula, Calif.) secondary antibodies.
# MCL [2] = assay: MCL organ culture with capsaicin, mechanical testing; design: species or system rat
# MCL [3] = conditions: cited from earlier work
# [4] = system: ruptured MCL of a surgical sympathectomy (SS) rat; assay: Local neuropeptide delivery to ruptured MCL of surgical sympathectomy (SS) rats: mechanical testing, histomorphology; type: in vivo
# Text: Surgical Procedure: Thirteen female Wistar rats (306 g to 339 g) were divided into two groups: surgical sympathectomy (SS) or sham control. All rats were anesthetized with isofluorane as described in Example 1. A transperitoneal approach was used. The lower abdomen was shaved and prepared for surgery. A skin incision approximately 25 mm long was made. Fascia and abdominal muscle were incised. Abdominal organs were displaced. With the aid of a dissecting microscope, fascia surrounding the deep muscle tissue was separated (with minimal disruption to the muscle tissue) to expose the post-ganglionic sympathetic nerves. The L1-4 nerves were isolated and transected (with removal of a 5 mm segment of the nerves) in the surgical sympathectomy group only. In both groups, the deep muscle tissue was returned to its initial position and abdominal organs were replaced. Abdominal muscles and skin were closed in two layers with a 3-0 or 4-0 continuous dexon suture. Rats from each group (n=4 SS; n=3 controls) then underwent a complete surgical rupture of the MCL to one knee. The contra-lateral knee underwent sham surgery. […] Two weeks post-surgery, rats were sacrificed using an overdose of pentobarbitone (150 mg/kg).
# Local delivery of NPs and NP inhibitors is important to identify the specific roles of individual NPs on healing tissues. An animal model for the local delivery of NPs has been developed and is presented in this Example. Briefly, NP infused mini-osmotic pumps were implanted subcutaneously into the back of rats. A small catheter running from the pump to an intramuscular space above the MCL was secured to the rat.
# To test whether autonomic NPs improve healing in SS-ruptured MCLs, three female Wistar rats (193 g to 204 g) were given VIP locally to the MCL. Vasoactive intestinal peptide (75 pg/μl) was infused into a mini-osmotic pump and was delivered to a ruptured MCL of a surgical sympathectomy (SS) rat (see surgical procedure above). Within minutes of surgical intervention, all rats recovered and had normal movement and behavior (grooming, feeding, etc.). […] The results are presented graphically in FIG. 6.
# Animal Model and Surgery: Thirty-seven female Wistar rats (199-298 g) were divided into five groups. […] Rats that were designated to receive SP or CGRP underwent bilateral femoral nerve transection (see previous examples). Rats that were designated to receive NPY, VIP, or a combination of NPY and VIP underwent bilateral surgical sympathectomy. Following surgical nerve transection, each rat also underwent bilateral MCL rupture. Neuropeptides were then delivered ruptured MCLs unilaterally. Neuropeptide infused mini-osmotic pumps (Alzet Corp.) were implanted subcutaneously into the back of each rat. A small catheter running from the pump was run to an intramuscular space above the MCL and was secured. To ensure that neuropeptides are delivered directly to the MCL, rhodamine labeled SP was delivered via a catheter to the MCL (n=2 rats).
# Within minutes of surgical intervention, all rats recovered and had normal movement and behavior (grooming, feeding, etc.). To test whether autonomic NPs improve healing in SS ruptured MCLs, seven rats were given VIP, seven rats were given NPY, and seven rats were given a combination of VIP and NPY. […]
# Mechanical Testing: Mechanical testing was performed as described in the preceding examples. Briefly, animal hind limbs from all groups (n=4 for all groups) were disarticulated at the hip joint and stored at −80° C. until testing. On the day of testing, MCLs including intact femoral and tibial bone sections were excised for ex vivo testing. Ligament thickness and width was measured optically, and MCL area was estimated with elliptical geometry. For strain measurements, optical markers were placed onto the ligament tissue near the insertion sites. […]
# [5] = system: bovine articular chondrocytes; assay: Bovine chondrocytes glycosaminoglycan assay (DMMB); type: cell-based; conditions: NPY 50 ng/ml; Day 3 of treatment; individual wells
# Experimental: (§2) Cartilage chunks were then digested at 37° C. in DMEM containing 0.05% hyaluronidase for 30 minutes, followed by 0.05% collagenase digestion overnight. The digests were filtered through 40-micron nylon mesh and centrifuged at 600×g for 20 minutes. The cell pellets were then resuspended in DMEM and counted using a hemacytometer.
# (§3) Cells were plated at 1×10^5 cells/well in 12-well plates (n=9) for proteoglycan assays and at 2×10^4 cells/well in 96-well plates (n=16) for proliferation assays. The culture volumes were 1 ml/well in 12-well plates and 100 μl/well in 96-well plates.
# (§4) The plates were incubated at 37° C. in a humidified CO2 incubator for 3 days to allow the cells to recover from the harvesting procedure.
# (§5) On Day 3 of treatment, 20 μl of CellTiter 96® AQueous One Solution Cell Proliferation Assay (Promega Corporation, Madison, Wis.) was added to each well of the 96-well cultures for 60 minutes, and cells in the 12-well plates were digested with 0.125 units of papain/well overnight. After the 60-minute incubation, the absorbance of the color generated by the cells in the 96-well plates was measured at wavelength 490 nm.
# Following papain digestion of the cultures in 12-well plates, the amount of glycosaminoglycan (representative of proteoglycans) in each well was measured using the dimethylmethylene blue (DMMB) dye-binding assay. The results were statistically analyzed and plotted.
# [6] = system: bovine articular chondrocytes; assay: Bovine chondrocytes proliferation assay (CellTiter 96 AQueous One); type: cell-based; conditions: CGRP 100 pg/ml, NPY 50 ng/ml, SP 500 pg/ml, VIP 1 ng/ml
# Experimental: as §2, §3, §4, §5
# healing MCL = assay: Local neuropeptide delivery to normally innervated healing MCL: mechanical testing, histomorphology; type: in vivo, rat
# Experimental: Animal Model and Surgery: Forty female Wistar rats (200-250 g) were divided into five groups.
# All rats underwent bilateral MCL rupture. Neuropeptides were then delivered ruptured MCLs unilaterally. Neuropeptide infused mini-osmotic pumps (Alzet Corp.) were implanted subcutaneously into the back of each rat. A small catheter running from the pump was run to an intramuscular space above the MCL and was secured.
# Mechanical Testing: Mechanical testing was performed as described in Chapter 2. Briefly, animal hind limbs from all groups (n=5 for all groups) were disarticulated at the hip joint and stored at −80° C. until testing. On the day of testing, MCLs including intact femoral and tibial bone sections were excised for ex vivo testing. Ligament thickness and width was measured optically, and MCL area was estimated with elliptical geometry. For strain measurements, optical markers were placed onto the ligament tissue near the insertion sites. A small preload of 0.1N was applied to the ligaments in order to obtain a uniform starting point. The ligaments were then preconditioned to 1% strain for 10 cycles. After preconditioning, ligaments were pulled to failure at a rate of 10% per second.
# Tissue displacement was obtained using video dimensional analysis using equations (1) and (2) supra. The mechanical properties that were examined in this study were maximum force, ultimate stress, strain at failure, elastic modulus, and area. Statistical analysis was performed using paired ttests to compare each treated MCL to its contralateral control (alpha=0.05).
# as §1
# [7] = system: Bovine nucleus pulposus cells; assay: Bovine nucleus pulposus (intervertebral disc) cell proliferation; type: cell-based; conditions: CGRP 10 ng/ml, NPY (mcg/ml, SP 5 mcg/ml); day 1, day 2, day 3
# Experimental: Bovine calf spines and femoral condyles were obtained from a slaughterhouse and freshly transported to the laboratory. Nucleus pulposus tissue was carefully dissected, avoiding annular and endplate cartilage tissues, from each disc. Articular cartilage from femoral condyles was dissected in the same manner. […] Cells were harvested by overnight digestion with hyaluronidase and collagenase, followed by filtration. Cells were plated at a density of 1×10^5 cells/ml and incubated at 37° C. in 5% CO2 and 95% air in the presence of each neuropeptide or media only (control). At various time points in growth, cells were collected for proliferation and glycosaminoglycan (GAG) production assays. Varying concentrations of NPs were examined.
# Well established colorimetric and luminescent assays (CellTiter 96® AQueous Non-radioactive Cell Proliferation and CellTiter-Glo® Luminescent Cell Viability Assays, Promega, Madison, Wis.) were used to quantify the effect of each NP on cell proliferation. In addition, corresponding cell cultures during growth were digested with papain to release glycosaminoglycans (GAGs). Dimethyl methylene blue (DMMB) colorimetric assays were used to quantify the amount of GAGs in each culture.
# Multiple samples for test and control groups were performed simultaneously. Statistical analyses using one way analysis of variance (ANOVA) with large degrees of freedom (n=12 for GAG assays; n=24 for proliferation assays) were performed to establish the significance of differences between test groups and control groups for each day of growth in culture.
# The effect of neuropeptides on intervertebral disc cell proliferation was examined in order to elucidate further the pathophysiology of degenerative disc disease. Bovine nucleus pulposus cells were incubated with the same neuropeptides.
# [8] = second study, Group 3: capsaicin 50 mg/kg/day x3 days, ruptured MCL, healing
# [9] = Group 3: ruptured MCL, capsaicin 50 mg/kg/day for three days, two weeks of healing
# [10] = Example 7: normally innervated rats, bilateral MCL rupture, mini-osmotic pump (SP 75, CGRP 10, NPY 65, VIP 100 pg/100 μl), two weeks of healing
compound,measurement,setting,value
COc1cc(CNC(=O)CCCC/C=C/C(C)C)ccc1O [capsaicin],histomorphology (H&E) of healing MCL,"intact and healing MCLs; capsaicin treated, two weeks of healing",hypercellular and disorganized
same,healing of MCL and skin wounds (in words),intact and healing MCLs; capsaicin-treated rats with MCL rupture,one MCL failed to heal; also recorded: healed poorly
same,ultimate stress of the ruptured ligament,"intact and healing MCLs; first study: capsaicin 50 mg/kg, MCL rupture after 3 days of treatment, n=3",4.6 MPa
same,ultimate stress of intact MCLs,"intact and healing MCLs; first study: capsaicin 50 mg/kg, intact MCL, 10 days",substantially reduced
same,"abnormalities in movement, body weight, or behavior",intact and healing MCLs; following initial recovery from capsaicin injection,No abnormalities
same,"failure force, ultimate stress, failure strain, area, and elastic modulus of intact MCL","intact and healing MCLs; second study, Group 1 vs Group 2, intact MCL",not significantly changed
same,failure force,intact and healing MCLs; [8],4.5±2.7 N
same,ultimate stress,intact and healing MCLs; [8],2.7±1.9 MPa
same,CGRP concentration in MCL (RIA),"[1]; Group 1: intact MCL, capsaicin 50 mg/kg/day s.c. for three days, 10 days after last injection",0.04 pmol/g
same,CGRP concentration in MCL (RIA),[1]; [9],0.042 pmol/g
same,NPY concentration in MCL (RIA),[1]; [9],3.09 pmol/g
same,SP concentration in MCL (RIA),[1]; [9],0.09 pmol/g
same,VIP concentration in MCL (RIA),[1]; [9],1.07 pmol/g
same,ultimate stress,MCL [2]; organ culture 10 days with capsaicin in media,66.0±4.7 MPa
same,ultimate force,MCL [2]; organ culture with capsaicin-supplemented media,no changes
insulin-like growth factor-1,healed strength relative to intact ligament,"MCL [3]; Provenzano et al., following 30 days of delivery",66%
neuropeptide Y [NPY],failure force,"[4]; Example 6: SS rats, bilateral MCL rupture, mini-osmotic pump (NPY 65 pg/100 μl; VIP 100 pg/100 μl; or both), two weeks of healing",12.2±0.9 N
same,histomorphology (H&E) of healing MCL,"[4]; SS rats, VIP or NPY, two weeks",more aligned
same,healing response of MCLs relative to intact controls,"[4]; neuropathic ruptured MCL, two weeks of healing",70%
same,Glycosaminoglycan Assay,[5],7.783 μg/dish and 9.327 μg/dish and 6.2383 μg/dish and 8.055 μg/dish and 7.964 μg/dish and 5.148 μg/dish and 5.784 μg/dish and 7.874 μg/dish and 8.328 μg/dish
same,proliferation of articular chondrocytes compared to controls (in words),[6],stimulate proliferation
same,histomorphology (H&E) of healing MCL,"healing MCL; Example 7, two weeks of healing",less of an effect on tissue alignment
same,failure force,healing MCL; [10],7.7±1.1 N
same,ultimate stress,healing MCL; [10],5.6±2.2 MPa
same,disc cell proliferation compared to controls,[7],stimulate disc cell proliferation
platelet-derived growth factor [PDGF],healed MCL strength relative to intact ligament strength,"MCL [3]; Woo et al., after 6 weeks of healing",50%
